From patent US8697629B2, “Modulation of intracellular signaling” (Angstrom Pharmaceuticals, Inc., priority 2010, dated 2014)

Tests used:
Format in all cases: cell-based
CD44 [1] = biological target: T1, CD44 (Homo sapiens, UniProt P16070); test: Dimerization of CD44 in SKOV3 cells, anti-CD44 B-F24 immunoblot; settings: SKOV3 cultured 20 hr with 1 or 10 μM Å6, non-reducing
T1 construct: endogenous in cells; host or cells: SKOV3 cells
Procedure: In FIG. 13 SKOV3 cells were cultured for 20 hr with no additions, 1 or 10 μM Å6 or 100 ng/ml PMA. Triton X-100 lysates were generated and further solubilized in SDS-PAGE sample buffer under non-reducing conditions. Aliquots representing 7.5 μg of cellular protein were subjected to SDS-PAGE followed by immunoblot analysis with the anti-CD44 murine monoclonal B-F24. The presence of stained higher molecular weight bands can be indicative of CD44 dimers and/or oligomers.

PKCalpha = PKCalpha phosphorylation in SKOV3 cells, immunoblot
Procedure: Cells were detached from their culture vessels by brief trypsinization, suspended in complete media and centrifuged at 250×g for 10 min at room temperature. The cell pellets were suspended in Dulbeco's phosphate buffered saline (DPBS) and re-centrifuged for a total of three washes. The cells were then re-suspended at 3.33E5/ml in 24 ml of either RPMI containing 0.5% BSA (Sigma Chem. Co. #A0336) (RPMI/BSA) or the conditioned media of growing NIH3T3 fibroblasts (10% FBS in DMEM) supplemented with 10 ng/ml vascular endothelial growth factor (VEGF) (CMN). The cells were then treated with or without 100 ug/ml soluble hyaluronic acid (HA; human umbilical, Calbiochem #385902) for 30 min at 37° C. under 5% CO2. Aliquots representing 2E6 cells were then plated into 10 cm culture dishes and A6 added to yield final concentrations of 0, 10, 100 and 1000 nM. The cells were cultured overnight (18 hr) at 37° C. under 5% CO2.
After 18 hr of treatment, the media were aspirated from the 10 cm dishes and saved. The plates were washed 3 times with 4 ml of ice-cold DPBS which were pooled with the reserved non-adherent cells. The non-adherent cells were centrifuged at 250×g for 10 min at 4° C., washed twice with cold DPBS, drained and lysed in 50 ul of cold RIPA buffer (ThermoScientific #89901) containing cocktails of broad spectrum phosphatase inhibitors (Calbiochem #524625; used at 2× final concentration) and protease inhibitors (Sigma #P8340) (RIPA/inh.). The 10 cm dishes were drained of remaining wash and the adherent cells lysed by scraping in 200 μL of cold RIPA/inh. For each test condition, the lysates of the non-adherent and adherent populations were combined, vortexed and then centrifuged at 14,000 rpm at 4° C. for 20 min. Aliquots of the cleared lysates were frozen at −80° C. immediately. A small aliquot was reserved for total protein analysis using a BCA Protein Assay Kit (Calbiochem #71285-3).
Samples representing 20 μg of total protein of each lysate were solubilized in the presence of 50 mM Tris pH 6.8, 10% glycerol, 2% SDS and 100 mM DTT for 5 min at 95° C. and then loaded onto 10-20% acrylamide gels (BioRad #345-0044, Tris-HCl, 1 mm, 26 well, 15 μL/well). Electrophoresis was performed using Laemli electrophoresis buffer (0.1% SDS, 25 mM Tris, 192 mM glycine) at 200 V, constant voltage, for one hour. Upon completion of electrophoresis, the proteins were transferred to Immun-Blot PVDF membranes (BioRad #162-0238) in ice-cold 20% methanol in 25 mM Tris, 192 mM glycine for 2 hr at 0.5 Amps, constant current/blotting apparatus. The membranes were then cut vertically between molecular weight markers and in half at the 64 kDa marker to generate pieces for screening of higher molecular weight proteins (e.g., FAK) and lower molecular weight proteins (e.g., MEK and GAPDH). […]

CD44 [2] = biological target: T1, CD44; test: IM7 binding to SKOV3 cells, FACs analysis; settings: IM7 1 μg/ml, 4° C.
Procedure: In FIGS. 14a and 14b SKOV3 cells were incubated with the indicated concentrations of Å6 for 30 min at 4° C. IM7 (1 μg/ml) was then added and allowed to bind for 30 min at 4° C., after which the cells were washed and incubated with FITC-donkey anti-rat IgG for 30 min at 4° C. The cells were washed once and then subjected to FACs analysis.

SKOV3 cells = test: Adhesion of SKOV3 cells to hyaluronic acid; settings: immobilized HA; 1 or 10 uM Å6; 20 ng/ml IM7
Procedure: In FIG. 11 SKOV3 cells were cultured overnight with or without 10 μM Å6 or 100 ng/ml PMA. The cells were then detached, washed and loaded with 20 μg/ml CFDA-SE for 30 min at 37° C. After washing, the cells were resuspended in PBS containing 10% FCS and triplicate aliquots representing 100,000 cells incubated for 30 min at room temperature with no additions, 1 or 10 uM Å6 or with 20 ng/ml IM7, a blocking anti-CD44 rat monoclonal antibody. The cells were then placed into microtiter wells that had been coated with 50 μL of 1 mg/mL HA overnight and blocked for 30 min with 10% FCS. The cells were allowed to adhere at room temperature for 30 minutes after which, the wells were decanted and washed 3 times. The fluorescence in each well was assessed (excit./emiss.: 460/536 nm) and the mean fluorescence values (+/standard deviation) of the triplicate determinations calculated.

A2780 cells = test: Boyden chamber chemotaxis of A2780 cells; settings: 10 ng/ml VEGF in NIH3T3-conditioned media, overnight
Procedure: A2780 (FIG. 10a) and SKOV3 (FIG. 10b) cells were incubated with the indicated concentrations of Å6 peptide for 30 min at 37° C. Aliquots representing 6,000 cells were placed on quadruplicate, CnI-coated filters (8 μm pores) in Boyden chambers and the cells allowed to migrate overnight in response to 10 ng/ml VEGF in NIH3T3-conditioned media containing the indicated concentrations of Å6. Upon completion of migration, the apical surfaces of the membranes were wiped clean and the migrating cells on the basal surface were stained with Geimsa stain and the cells present in representative fields of the membranes counted. Data represent the averages+/−standard deviations obtained from the replicate filters. […] This provides further confirmation that CD44 is the target for the Å6 peptide.

T1 sequence (P16070 21-742): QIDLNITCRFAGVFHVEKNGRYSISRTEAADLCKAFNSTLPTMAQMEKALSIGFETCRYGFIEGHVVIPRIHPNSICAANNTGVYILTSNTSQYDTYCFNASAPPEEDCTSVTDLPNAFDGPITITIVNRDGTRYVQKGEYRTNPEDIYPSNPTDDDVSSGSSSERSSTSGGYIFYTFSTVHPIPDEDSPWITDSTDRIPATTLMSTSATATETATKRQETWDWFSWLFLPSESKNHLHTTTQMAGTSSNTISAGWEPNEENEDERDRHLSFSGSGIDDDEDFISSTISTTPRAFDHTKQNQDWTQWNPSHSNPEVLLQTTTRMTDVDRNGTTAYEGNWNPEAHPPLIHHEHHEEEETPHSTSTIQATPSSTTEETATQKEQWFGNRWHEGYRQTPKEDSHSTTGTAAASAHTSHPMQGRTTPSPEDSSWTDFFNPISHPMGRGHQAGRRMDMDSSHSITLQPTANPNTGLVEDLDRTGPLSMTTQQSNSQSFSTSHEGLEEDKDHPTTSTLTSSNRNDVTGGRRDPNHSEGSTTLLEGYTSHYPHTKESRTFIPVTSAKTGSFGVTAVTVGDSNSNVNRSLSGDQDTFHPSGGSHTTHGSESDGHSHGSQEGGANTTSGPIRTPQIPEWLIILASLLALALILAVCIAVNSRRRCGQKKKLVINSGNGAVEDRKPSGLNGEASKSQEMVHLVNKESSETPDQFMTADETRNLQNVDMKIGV

“acetyl-Lys-Pro-Ser-Ser-Pro-Pro-Glu-Glu-NH2 (Ac-KPSSPPEE-NH2) [Å6]” was tested, and the “CD44 higher molecular weight bands (dimers and/or oligomers)” value (CD44 [1]) was “higher molecular weight bands are formed”, the “total PKCalpha” value (PKCalpha; CM/V cultured samples) was “decreased” and the pPKCa/PKCa (PKCalpha; CM/V in the absence of HA) was “decreased”. For the same substance, the pPKCa/PKCa (PKCalpha; in the presence of HA) was “appears to have further enhanced”, the “IM7 antibody binding to SKOV3 cells” value (CD44 [2]) was “increase in antibody binding with increasing concentration” and the “SKOV3 binding to HA” value (SKOV3 cells) was “enhanced”. For the same substance, the “migration of A2780” value (A2780 cells) was “essentially unaffected”.
